Laboratory results reported in patent publication US20210310040A1, “SUSCEPTIBILITY AND RESISTANCE OF MICROORGANISMS” (priority 2017, published 2021).
Values after ≈ are worked out from the molar mass of the structure shown.

Key:
K. pneumoniae IS-007 [1] = settings: cited from earlier work
K. pneumoniae IS-133 = settings: cited from earlier work
K. pneumoniae IS-020 [2] = settings: cited from earlier work
K. pneumoniae IS-007 [3] = assay: Colorimetric sensor array susceptibility test on solid growth media; assay type: cell-based, Klebsiella pneumoniae
Excerpt: (§1) To detect and identify a microorganism by species and/or strain, a sample including the microorganism is placed in a container including culture medium and a colorimetric array, and the temporal response of the sensors to the metabolic products of the microorganism is monitored. Susceptibility can be assessed by inoculating a growth medium including a substance (e.g., an antibiotic) with a microorganism and monitoring the response of the sensors while also monitoring the response of a control (e.g., no antibiotic).
(§2) FIG. 8 depicts an embodiment of a container 800 configured for use to assess a susceptibility or resistance of microorganisms. Container 800 includes base 802 and lid 804, with wells 806 positioned in base 802 opposite colorimetric sensor arrays 808 on lid 804. Microorganisms may be placed in contact with growth medium (e.g., a solid or liquid growth medium) in wells 806. A substance (e.g., a drug such as an antibiotic) may be added to the growth medium. In one example, rows and columns of wells 802 in container 800 may be used for different microorganisms, different substances (e.g., drugs including antibiotics that may potentially kill the microorganisms), and/or different concentrations of substances. After samples are loaded on wells 802, a lid 804 may be positioned over base 802, such that each colorimetric sensor array 808 is proximate a well 806 and in gaseous (or liquid) communication. In other embodiments, various other configurations could be utilized to bring the gas and volatile organic compounds emitted from the sample into gaseous proximity of the sensor array 808 at sufficient gaseous concentrations. The response of the sensor arrays 808 recorded by various detectors may then be assessed in order to determine a susceptibility or resistance of the various antibiotics or substances cultured with the sample. Susceptibility may be assessed via temporal response of the sensors in colorimetric sensor arrays 808 as described herein. Container 800 can be positioned in an apparatus (e.g., apparatus 700) for automated assessment of susceptibility and/or resistance.
(§3) FIGS. 9A-B show susceptibility of K. pneumoniae strains obtained in 6 hours in Muller-Hinton agar (x axis indicates time in hours). Susceptibility is indicated by a lack of metabolic products compared to controls (no antibiotic). […] FIGS. 10A-C show susceptibility of S. aureus strains obtained in 6 hours in Muller-Hinton agar.
(§4) In another susceptibility test, three strains of K. pneumoniae were inoculated onto the solid growth media with no antibiotic (control), piperacillin/tazobactam (PIP/TAZO) at concentrations of 16 ug/ml and 4 ug/ml, Cefepime at 8 ug/ml and Meropenem at 1 ug/ml. […] K. pneumoniae IS-020 was susceptible to all 3 antibiotics in agreement with known susceptibility information that this strain is susceptible to PIP/Tazo at <4 ug/ml, Cefepime <1 ug/ml and Meropenem at <0.25 ug/ml). K. pneumoniae IS-133 is known to be resistant at concentrations of PIP/Tazo below 128 ug/ml, Cefepime below 64 ug/ml and Meropenem below 16 ug/ml.

K. pneumoniae IS-020 [4] = assay: as above; assay type: cell-based, Klebsiella pneumoniae
Excerpt: as §1, §2, §3, §4

E. coli (AR85) = assay: Susceptibility by perturbation of VOCs, single indicator response with antibiotic; assay type: cell-based; settings: Escherichia coli; observed after 2.5 hours, FIG. 50; read-out: minimum inhibitory concentration (MIC)
Excerpt: (§5) However, it has been discovered that detection of changes in VOC output of microorganism—in addition to changes in the number of microorganisms—can be detected by the sensor 808 after application of antibiotics. The change in the sensor 808 response can also be correlated to susceptibility of the microorganism to antibiotics. For instance, it has been discovered that after application of antibiotics, certain sensors decrease or show less response at certain concentrations. This change in VOC output can be correlated to the resistance or susceptibility of the microorganisms in the sample to the antibiotic or other substance introduced. In other examples, a change in compound output that remain in solution (not limited to VOCs) may be correlated to a susceptibility of the microorganisms.
FIG. 50 illustrates a graph showing the sensor response of a single sensor 808, dye or indicator to a sample of E. coli incubated in the presence of different concentrations of Ertapenem—a Carbapenem family of antibiotic. As illustrated, the single indicator can not only determine whether this strain of E. coli (AR85) is resistant to Ertapenem, but also the minimum inhibitory concentration (“MIC”). As illustrated, the minimum inhibitory concentration of 2 μg/ml is observed only after 2.5 hours. […]

S. aureus 29213 (MSSA) = assay: as above; assay type: cell-based; settings: Staphylococcus aureus, observed in about 2.5 hours, FIG. 52
Excerpt: as §5
FIG. 52 illustrates two graphs showing the MIC observed for two different antibiotics to S. aureus 29213 (MSSA). The graph on the left portion of FIG. 52 illustrates a MIC of 1 μg/ml to Cefoxitin and the graph on the right illustrations a MIC of 0.5 μg/ml of Vancomycin.

S. aureus IS-124 [5] = settings: cited from earlier work
S. aureus IS-120 [6] = assay: Colorimetric sensor array susceptibility test on solid growth media; assay type: cell-based, Staphylococcus aureus
Excerpt: as §1, §2, §3
(§6) In another susceptibility test, three strains of S. aureus were inoculated onto the solid growth media. […] S. aureus IS-124 was susceptible to both antibiotics in agreement with known susceptibility information that this strain is susceptible to Oxacillin and Vancomycin.

S. aureus IS-123 [7] = assay: as above; assay type: cell-based, Staphylococcus aureus
Excerpt: as §1, §2, §3, §6

S. aureus IS-124 [8] = assay: as above; assay type: cell-based, Staphylococcus aureus
Excerpt: as §1, §2, §3, §6

S. aureus IS-120 [9] = settings: cited from earlier work
S. aureus IS-123 [10] = settings: cited from earlier work
ATCC 25922 (Pan-S) = assay: Susceptibility by perturbation of VOCs, single indicator response after addition of antibiotic; assay type: cell-based, E. coli
Excerpt: as §5
For instance, FIG. 48 illustrates an example of the response of the red spectrum of a single indicator (e.g. an indicator containing ZnTPP and Bromophenol Blue) on the sensor 808 in the presence of a sample. As shown, the antibiotic is added at 0.5 hours—in the example of the susceptible microorganism ATCC 25922 (Pan-S), the indicator red component drops off dramatically. The results can be noticed almost a half an hour to an hour after adding the antibiotic—far faster than to notice a general decline in emission of VOCs due to cell death or lack of growth of microorganisms. […]

E. coli AR 84 (ESBL) = assay: as above; assay type: cell-based; settings: at all concentrations of Ampicillin
Excerpt: as §5
In the resistant strain illustrated in FIG. 48, AR 84 (ESBL), the antibiotic is added at the same time, but the red component of the sensor response continues to increase over time. […] Accordingly, in this embodiment, the sensor 808 response of a single indicator may be monitored. Changes in the slope of the indicator response over time, or decreases in the indicator may be monitored to determine when there is potentially a susceptible organism. […]

[11] = PIP/TAZO at 16 ug/ml and 4 ug/ml

Molecule: CO/N=C(\C(=O)N[C@@H]1C(=O)N2C(C(=O)[O-])=C(C[N+]3(C)CCCC3)CS[C@H]12)c1csc(N)n1 [Cefepime]
- known susceptibility information: concentration at which strain is susceptible (K. pneumoniae IS-007 [1]): < 0.25 µg/mL
- known susceptibility information: concentration below which strain is resistant (K. pneumoniae IS-007 [1]): below 64 ug/ml
- known to be resistant at concentrations below (K. pneumoniae IS-133): below 64 ug/ml
- known susceptibility information: concentration at which strain is susceptible (K. pneumoniae IS-020 [2]): < 1 µg/mL
- susceptibility or resistance by sensor response compared to control (K. pneumoniae IS-007 [3]; Cefepime at 8 ug/ml): resistance
- susceptibility or resistance by sensor response compared to control (K. pneumoniae IS-020 [4]; Cefepime at 8 ug/ml): susceptible

Molecule: C[C@@H](O)[C@H]1C(=O)N2C(C(=O)O)=C(S[C@@H]3CN[C@H](C(=O)Nc4cccc(C(=O)O)c4)C3)[C@H](C)[C@H]12 [Ertapenem]
- MIC (E. coli (AR85)): 2 mg/L (≈ 4.21 µM)

Molecule: CO[C@@]1(NC(=O)Cc2cccs2)C(=O)N2C(C(=O)O)=C(COC(N)=O)CS[C@@H]21 [Cefoxitin]
- MIC (S. aureus 29213 (MSSA)): 1 mg/L (≈ 2.34 µM)

Molecule: CN[C@H](CC(C)C)C(=O)N[C@H]1C(=O)N[C@@H](CC(N)=O)C(=O)N[C@H]2C(=O)N[C@H]3C(=O)N[C@H](C(=O)N[C@H](C(=O)O)c4cc(O)cc(O)c4-c4cc3ccc4O)[C@H](O)c3ccc(c(Cl)c3)Oc3cc2cc(c3O[C@@H]2O[C@H](CO)[C@@H](O)[C@H](O)[C@H]2O[C@H]2C[C@](C)(N)[C@H](O)[C@H](C)O2)Oc2ccc(cc2Cl)[C@H]1O [Vancomycin]
- known susceptibility information: susceptible or resistant (S. aureus IS-124 [5]): susceptible
- susceptibility or resistance by sensor response (S. aureus IS-120 [6]; Vancomycin at 1-2 ug/ml): susceptibility
- susceptibility or resistance by sensor response (S. aureus IS-123 [7]; Vancomycin at 1-2 ug/ml): susceptibility
- susceptibility or resistance by sensor response (S. aureus IS-124 [8]): susceptible
- known susceptibility information: susceptible or resistant (S. aureus IS-120 [9]): susceptible
- known susceptibility information: susceptible or resistant (S. aureus IS-123 [10]): susceptible

Molecule: C[C@@H](O)[C@H]1C(=O)N2C(C(=O)O)=C(S[C@@H]3CN[C@H](C(=O)N(C)C)C3)[C@H](C)[C@H]12 [Meropenem]
- known to be resistant at concentrations below (K. pneumoniae IS-133): below 16 ug/ml
- known susceptibility information: concentration at which strain is susceptible (K. pneumoniae IS-020 [2]): < 0.25 µg/mL
- susceptibility or resistance by sensor response compared to control (K. pneumoniae IS-007 [3]; Meropenem at 1 ug/ml): susceptibility
- susceptibility or resistance by sensor response compared to control (K. pneumoniae IS-020 [4]; Meropenem at 1 ug/ml): susceptible

Molecule: Cc1onc(-c2ccccc2)c1C(=O)N[C@@H]1C(=O)N2[C@@H]1SC(C)(C)[C@@H]2C(=O)O [Oxacillin]
- known susceptibility information: susceptible or resistant (S. aureus IS-124 [5]): susceptible
- susceptibility or resistance by sensor response (S. aureus IS-120 [6]; Oxacillin at 2 ug/ml): resistance
- susceptibility or resistance by sensor response (S. aureus IS-123 [7]; Oxacillin at 2 ug/ml): resistance
- susceptibility or resistance by sensor response (S. aureus IS-124 [8]): susceptible
- known susceptibility information: concentration below which strain is resistant (S. aureus IS-120 [9]): below 4 ug/ml
- known susceptibility information: concentration below which strain is resistant (S. aureus IS-123 [10]): below 4 ug/ml

Molecule: CC1(C)S[C@@H]2[C@H](NC(=O)[C@H](N)c3ccccc3)C(=O)N2[C@H]1C(=O)O [Ampicillin]
- sensor response of single indicator after addition of antibiotic (FIG. 49) (ATCC 25922 (Pan-S); Ampicillin at 0.5 mg/ml and 1.0 mg/ml): same response
- MIC (ATCC 25922 (Pan-S); Escherichia coli, ATCC25922, single sensor or indicator, FIG. 53): 1 to 8 mg/L (≈ 2.86 to 22.9 µM)
- sensor response of single indicator after addition of antibiotic (FIG. 49) (E. coli AR 84 (ESBL)): decline in sensor response

Molecule: piperacillin/tazobactam [PIP/Tazo]
- known susceptibility information: concentration at which strain is susceptible (K. pneumoniae IS-007 [1]): 4 µg/mL
- known to be resistant at concentrations below (K. pneumoniae IS-133): below 128 ug/ml
- known susceptibility information: concentration at which strain is susceptible (K. pneumoniae IS-020 [2]): < 4 µg/mL
- susceptibility or resistance by sensor response compared to control (K. pneumoniae IS-007 [3]; [11]): susceptibility
- susceptibility or resistance by sensor response compared to control (K. pneumoniae IS-020 [4]; [11]): susceptible
